Legend:
[1] = test system: rupintrivir-resistant Norwalk virus replicon; assay: Susceptibility of rupintrivir-resistant replicon cells, all clones (qRT-PCR); format: cell-based, Human norovirus (HuNoV) GI; conditions: resistant clones vs DMSO-passaged cells
Method: Given the potent effects of rupintrivir on HGT-NV cells, we sought to determine whether rupintrivir-resistant replicons could be generated. To this end, HGT-NV cells were treated with 5 μM rupintrivir for 12 days in the absence of G418 selection, followed by subsequent passages in the presence of G418 with increasing concentrations of rupintrivir for up to 45 days (Fig. 1D). This approach yielded three lineages of replicon cells which were resistant to 10, 15, and 20 μM rupintrivir. To identify the mutations conferring the resistance to rupintrivir, we isolated cell clones by limiting dilution using replicon cells surviving after 45 days of culture and then evaluated the rupintrivir sensitivity of the replicon cells. […] All clones treated with 10 μM rupintrivir had the I109V single amino acid substitution, while the A105V/I109V double amino acid substitution was observed only in clones treated with 15 and 20 μM rupintrivir. […]
(§1) The inhibitory effect of rupintrivir on HuNoV replication was assessed by quantification of the levels of GI NuNoV RNA and β-actin RNA as the reference gene. […] The real-time quantitative reverse transcription-PCR (qRT-PCR) assay was performed by using a One-Step Plus qRT-PCR kit according to the protocol of the manufacturer (Primer Design). […] Relative quantification was performed using the 2^−ΔΔCT threshold cycle (CT) method ([38]). […]

[2] = test system: Norwalk virus replicon; assay: Norwalk virus replicon RNA level in HGT-NV cells by qRT-PCR; format: cell-based, Human norovirus (HuNoV) GI
Method: A human gastric tumor-1 (HGT-1) cell line ([29]) was used to establish a human norovirus replicon-harboring HGT (HGT-NV) cell line. In brief, viral protein genome (VPg)-linked RNA was isolated from BHK cells containing the Norwalk virus GI replicon and transfected into HGT-1 cells. HGT-NV replicon cells were selected in G418 (1 mg/ml), and limiting dilution was used to identify a clone with high viral RNA levels. The generated HGT-NV replicon cells were grown and maintained under G418 selection. The replicon-containing BHK cell line was generated by the transfection of in vitro-transcribed capped RNA from the cDNA construct of the Norwalk virus replicon ([9]), kindly provided by Kim Green (National Institutes of Health, Bethesda, MD, USA), into baby hamster kidney cells. Human embryonic kidney HEK293T cells were obtained from ATCC. The murine microglial BV-2 cell line was provided by Jennifer Pocock (University College London, London, UK). […]
as §1

[3] = target: T1, GI A105V mutant protease (Norovirus, UniProt Q83883, A1205V); assay: Cell-based FRET assay, GI A105V protease; parameters: species or system norovirus GI.1 (M87661)
T1 construct: plasmids expressing norovirus protease from GI.1 (M87661); expressed in transfected cells; host or cells: HEK293T
T1 sequence (Q83883 1101-1281 A1205V): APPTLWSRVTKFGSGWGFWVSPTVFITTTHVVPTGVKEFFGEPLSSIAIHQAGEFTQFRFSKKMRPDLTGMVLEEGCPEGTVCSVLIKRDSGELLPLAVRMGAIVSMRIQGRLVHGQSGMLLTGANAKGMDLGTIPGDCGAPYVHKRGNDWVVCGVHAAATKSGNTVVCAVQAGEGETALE
Text: (§2) The generation of plasmids expressing norovirus protease from GI.1 (M87661), GII.4 (DQ658413), or GV (DQ285629) norovirus and FRET assay constructs has been described previously ([18]). The plasmids carrying GI, GII, and GV proteases with the A105V, I109V, or A105V/I109V mutation were generated from the wild-type (WT) protease constructs described above by the QuikChange site-directed mutagenesis method. Mutant MNV genomes for reverse genetics were generated by two-step PCR mutagenesis of the WT MNV genome (pT7 MNV 3RZ) construct as described previously ([27]). The primers used for generation of the plasmids are listed in Tables S1 and S2 in the supplemental material.
(§3) The YFP/CFP ratio was used to determine FRET efficiency, as described previously ([18], [40]). Briefly, HEK293T cells were plated into black 96-well cell culture microplates (Greiner Bio-One) at a density of 5 × 10^4 cells/well in 100 μl of DMEM containing 10% fetal bovine serum with or without various concentrations of rupintrivir and then incubated for 4 h in a CO2 incubator at 37°C. […] The plates were then analyzed on a SpectraMax i3 instrument in fluorescence mode, with excitation set at 434 nm and the reading emissions set at 477 nm (CFP) and 527 nm (YFP). The background fluorescence from wells transfected with pcDNA3.1 was determined and subtracted. […]

[4] = target: T2, GI WT protease (Norovirus, UniProt Q83883); assay: Cell-based FRET assay, GI WT protease; parameters: species or system norovirus GI.1 (M87661); conditions: HEK293T cells, GI NS1/2-NS3 FRET substrate; read-out: 50% inhibitory concentration (IC50)
T2 construct: plasmids expressing norovirus protease from GI.1 (M87661); expressed in transfected cells; host or cells: HEK293T
T2 sequence (Q83883 1101-1281): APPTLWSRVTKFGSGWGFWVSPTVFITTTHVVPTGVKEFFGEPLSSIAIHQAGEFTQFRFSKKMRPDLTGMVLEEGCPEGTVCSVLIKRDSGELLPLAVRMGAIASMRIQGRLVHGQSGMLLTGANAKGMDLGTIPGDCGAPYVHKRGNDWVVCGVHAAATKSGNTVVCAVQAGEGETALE
Text: as §2, §3

CCOC(=O)/C=C/[C@H](C[C@@H]1CCNC1=O)NC(=O)[C@@H](CC(=O)[C@@H](NC(=O)c1cc(C)on1)C(C)C)Cc1ccc(F)cc1 [rupintrivir, Rupintrivir]
fold reduced sensitivity [1]: 4- to 11 fold | selectivity index (CC50/EC50) ([2]; HGT-NV cells): > 77 | EC50 ([2]; Norwalk virus, 72 h, read-out: 50% effective concentration (EC50), replicon RNA): 1300 ± 100 nM | IC50 ([3]; HEK293T cells, GI NS1/2-NS3 FRET substrate): 4200 ± 1100 nM | fold increase in IC50 ([3]; vs GI WT protease): 3.2 fold | IC50 [4]: 1300 ± 400 nM

— article PMC5923142, “Selection and Characterization of Rupintrivir-Resistant Norwalk Virus Replicon Cells In Vitro” (Antimicrobial Agents and Chemotherapy, 2018)
